Here are results for two substances from patent publication US20160213003A1, “APPLICATION OF POLYOXOMETALATE IN PREPARATION OF DISINFECTANT FOR STERILIZING AND REMOVING FORMALDEHYDE” (NINGBO YUCHEN ENVIROCLEAN TECH CO., LTD., priority 2013, published 2016).

The test system of the test is Staphylococcus aureus. The test is described as follows: Kirby-Bauer diffusion detection of sterilizing capability (inhibition zone diameter). The class given is cell-based. The following applies: for sterilization effect without oxygen ventilation (diameter, mm): pH 10, no oxygen ventilation. Here is the method:
In catalyst screening, Staphylococcus aureus was used as the microorganisms, and a trypsin soybean agar was used as a culture medium. The material powder to be screened was prepared into a homogeneous mixture solution by pure water in a 3% weight/volume ratio (i.e., 3 g powder/100 mL water), then immersed with a neutral precise filtration filter paper of 5 mm diameter for about 10 seconds, then placed into a Kirby-Bauer diffusion detection plate. A Kirby-Bauer diffusion detection plate was placed in a sealed glass cover, and the air was provided into the glass cover at a speed of about 10 liters per minute. The sterilizing capability of the catalyst was measured by the diameter of the zone without bacterial growth around the filter paper. A variety of polyoxometalates were respectively prepared into a water solution with a 3% mass concentration, and pH was controlled to 10. The sterilizing capability was also detected by Kirby-Bauer diffusion detection method in which Staphylococcus aureus was used as the microorganisms, respectively including no oxygen ventilation and oxygen ventilation. When oxygen was ventilated, the condition for oxygen ventilation was the same, the temperature was room temperature (25° C.) and 37° C. […] Potassium polytungstate (K3[PW12O40]) was respectively prepared into water solutions with mass concentration of 0.5%, 1.0%, 2.0%, 3%, 5%, 10%, and 15%, and the pH were controlled to 10. The sterilizing capability was also detected by Kirby-Bauer diffusion detection method in which Staphylococcus aureus was used as the microorganisms, the condition for oxygen ventilation was the same, and the temperature was room temperature (25° C.) and 37° C. […] Potassium polytungstate (K3[PW12O40]) was respectively prepared into water solutions with a concentration of 3% and pH of 6, 7, 8, 8.5, 9, 9.5, 10, 10.5, 11, 11.5, 12. The sterilizing capability was also detected by Kirby-Bauer diffusion detection method in which Staphylococcus aureus was used as the microorganisms, the condition for oxygen ventilation was the same, and the temperature was room temperature (25° C.) and 37° C.

Where [1] appears, read: 3% water solution, pH 10, oxygen ventilation, 25° C.
The mark [2] stands for this setting: 3% water solution, pH 10, oxygen ventilation, 37° C.

As for Na3[PW12O40], the “sterilization effect without oxygen ventilation (diameter, mm)” value (3% water solution) was found to be 3 mm. Also, under setting [1], the “sterilization effect at 25° C. (diameter, mm)” value was 19 mm. The “sterilization effect at 37° C. (diameter, mm)” value under setting [2] was found to be 18 mm.
On to Potassium polytungstate [K3[PW12O40]], for which the “sterilization effect at 25° C. (diameter, mm)” value (3% water solution, pH 6, oxygen ventilation, 25° C.) is given as 5 mm; the “sterilization effect at 25° C. (diameter, mm)” value (3% water solution, pH 7, oxygen ventilation, 25° C.) is 6 mm; the “sterilization effect at 25° C. (diameter, mm)” value (3% water solution, pH 8, oxygen ventilation, 25° C.) is 8 mm; the “sterilization effect at 25° C. (diameter, mm)” value (3% water solution, pH 8.5, oxygen ventilation, 25° C.) was found to be 14 mm; the “sterilization effect at 25° C. (diameter, mm)” value (3% water solution, pH 9, oxygen ventilation, 25° C.) worked out at 17 mm; the “sterilization effect at 25° C. (diameter, mm)” value (3% water solution, pH 9.5, oxygen ventilation, 25° C.) came to 20 mm. Also, the “sterilization effect at 25° C. (diameter, mm)” value by setting is: under setting [1], 19 mm; (3% water solution, pH 10, oxygen ventilation, 25° C. (pH series)) 19 mm; (3% water solution, pH 10.5, oxygen ventilation, 25° C.) 18 mm; (3% water solution, pH 11, oxygen ventilation, 25° C.) 20 mm; (3% water solution, pH 11.5, oxygen ventilation, 25° C.) 20 mm; (3% water solution, pH 12, oxygen ventilation, 25° C.) 20 mm. For the same substance, the “sterilization effect at 25° C. (diameter, mm)” value reads like this: (concentration 0.5%, pH 10, oxygen ventilation, 25° C.) 8 mm; (concentration 1.0%, pH 10, oxygen ventilation, 25° C.) 11 mm; (concentration 2.0%, pH 10, oxygen ventilation, 25° C.) 14 mm; (concentration 3.0%, pH 10, oxygen ventilation, 25° C.) 16 mm; (concentration 5%, pH 10, oxygen ventilation, 25° C.) 18 mm; (concentration 10%, pH 10, oxygen ventilation, 25° C.) 20 mm. Also, the “sterilization effect at 25° C. (diameter, mm)” value (concentration 15%, pH 10, oxygen ventilation, 25° C.) was determined as 19 mm. Also, the “sterilization effect at 37° C. (diameter, mm)” value (3% water solution, pH 6, oxygen ventilation, 37° C.) amounted to 6 mm; the “sterilization effect at 37° C. (diameter, mm)” value (3% water solution, pH 7, oxygen ventilation, 37° C.) is given as 8 mm; the “sterilization effect at 37° C. (diameter, mm)” value (3% water solution, pH 8, oxygen ventilation, 37° C.) is recorded as 11 mm; the “sterilization effect at 37° C. (diameter, mm)” value (3% water solution, pH 8.5, oxygen ventilation, 37° C.) is reported as 15 mm; the “sterilization effect at 37° C. (diameter, mm)” value (3% water solution, pH 9, oxygen ventilation, 37° C.) worked out at 18 mm; the “sterilization effect at 37° C. (diameter, mm)” value (3% water solution, pH 9.5, oxygen ventilation, 37° C.) came out at 19 mm. Moreover, the “sterilization effect at 37° C. (diameter, mm)” value by setting is: under setting [2], 19 mm; (3% water solution, pH 10, oxygen ventilation, 37° C. (pH series)) 19 mm; (3% water solution, pH 10.5, oxygen ventilation, 37° C.) 19 mm; (3% water solution, pH 11, oxygen ventilation, 37° C.) 20 mm; (3% water solution, pH 11.5, oxygen ventilation, 37° C.) 20 mm; (3% water solution, pH 12, oxygen ventilation, 37° C.) 20 mm. Further, the “sterilization effect at 37° C. (diameter, mm)” value runs as follows: (concentration 0.5%, pH 10, oxygen ventilation, 37° C.) 9 mm; (concentration 1.0%, pH 10, oxygen ventilation, 37° C.) 10 mm; (concentration 2.0%, pH 10, oxygen ventilation, 37° C.) 16 mm; (concentration 3.0%, pH 10, oxygen ventilation, 37° C.) 18 mm; (concentration 5%, pH 10, oxygen ventilation, 37° C.) 19 mm; (concentration 10%, pH 10, oxygen ventilation, 37° C.) 20 mm. Moreover, the “sterilization effect at 37° C. (diameter, mm)” value (concentration 15%, pH 10, oxygen ventilation, 37° C.) is reported as 18 mm. For the same substance, the “sterilization effect without oxygen ventilation (diameter, mm)” value (3% water solution) was determined as 3 mm.
